# Assay results from patent publication US20240349726A1, “SUBSTITUTED 1,2,4-THIADIAZOLYL NICOTINAMIDES, SALTS OR N-OXIDES THEREOF AND THEIR USE AS HERBICIDALLY ACTIVE SUBSTANCES” (Bayer Aktiengesellschaft, priority 2021, published 2024).
# Assays:
# Type in all cases: in vivo
# Stellaria media [1] = experiment: Herbicidal pre-emergence action, STEME; settings: visual grading after ca. 3 weeks vs untreated controls
# Text: (§1) Seeds of mono- and dicotyledonous weed plants were sown in plastic pots (double sowings with one species of mono- and one species of dicotyledonous weed plants per pot), in sandy loam, and covered with soil. The compounds according to the invention, formulated in the form of wettable powders (WP) or as emulsifiable concentrates (EC), were applied to the surface of the covering soil as an aqueous suspension or as an emulsion, with the addition of 0.5% of an additive, at an application rate of 600 litres of water per hectare (converted). Following treatment, the pots were placed in a greenhouse and kept under optimum growth conditions for the test plants. The visual grading of the damage to the test plants is carried out after ca. 3 weeks in comparison to untreated controls (herbicidal effect in percent (%): 100% effect=plants have died, 0% effect=as control plants). Seeds of mono- and dicotyledonous weed plants were sown in plastic pots (double sowings with one species of mono- and one species of dicotyledonous weed plants per pot), in sandy loam, and covered with soil. The compounds according to the invention, formulated in the form of wettable powders (WP) or as emulsifiable concentrates (EC), were applied to the surface of the covering soil as an aqueous suspension or as an emulsion, with the addition of 0.5% of an additive, at an application rate of 600 litres of water per hectare (converted). Following treatment, the pots were placed in a greenhouse and kept under optimum growth conditions for the test plants. The visual grading of the damage to the test plants is carried out after ca. 3 weeks in comparison to untreated controls (herbicidal effect in percent (%): 100% effect=plants have died, 0% effect=as control plants).
# Matricaria inodora [2] = experiment: Herbicidal pre-emergence action, MATIN; settings: visual grading after ca. 3 weeks vs untreated controls
# Text: as §1
# Poa annua [3] = experiment: Herbicidal pre-emergence action, POAAN; settings: 1280 g/ha, visual grading after ca. 3 weeks vs untreated controls
# Text: as §1
# Alopecurus myosuroides [4] = experiment: Herbicidal pre-emergence action, ALOMY; settings: 1280 g/ha, visual grading after ca. 3 weeks vs untreated controls
# Text: (§2) Seeds of mono- and dicotyledonous weed plants were sown in plastic pots (double sowings with one species of mono- and one species of dicotyledonous weed plants per pot), in sandy loam, and covered with soil. The compounds according to the invention, formulated in the form of wettable powders (WP) or as emulsifiable concentrates (EC), were applied to the surface of the covering soil as an aqueous suspension or as an emulsion, with the addition of 0.5% of an additive, at an application rate of 600 litres of water per hectare (converted). Following treatment, the pots were placed in a greenhouse and kept under optimum growth conditions for the test plants. The visual grading of the damage to the test plants is carried out after ca. 3 weeks in comparison to untreated controls (herbicidal effect in percent (%): 100% effect=plants have died, 0% effect=as control plants).
# Setaria viridis [5] = experiment: Herbicidal pre-emergence action, SETVI; settings: 1280 g/ha, visual grading after ca. 3 weeks vs untreated controls
# Text: as §2
# Veronica persica [6] = experiment: Herbicidal post-emergence action, VERPE; settings: assessed visually after ca. 3 weeks vs untreated controls
# Text: (§3) Seeds of mono- and dicotyledonous weed plants were sown in plastic pots (double sowings with one species of mono- and one species of dicotyledonous weed plants per pot), in sandy loam, covered with soil and grown under controlled growth conditions. 2 to 3 weeks after sowing, the test plants were sprayed in the single-leaf stage. The compounds according to the invention, formulated in the form of wettable powders (WP) or as emulsifiable concentrates (EC), were sprayed onto the green plant parts as an aqueous suspension or as an emulsion, with the addition of 0.5% of an additive, at an application rate of 600 litres of water per hectare (converted). The test plants were placed in the greenhouse for ca. 3 weeks under optimum growth conditions, and then the effect of the preparations is assessed visually in comparison with untreated controls (herbicidal effect in percent (%): 100% effect=plants have died, 0% effect=as control plants). […]
# Stellaria media [7] = experiment: Herbicidal post-emergence action, STEME; settings: assessed visually after ca. 3 weeks vs untreated controls
# Text: as §3
# Matricaria inodora [8] = experiment: Herbicidal post-emergence action, MATIN; settings: assessed visually after ca. 3 weeks vs untreated controls
# Text: as §3
# Alopecurus myosuroides [9] = experiment: Herbicidal post-emergence action, ALOMY; settings: assessed visually after ca. 3 weeks vs untreated controls
# Text: as §3
# Abutilon theophrasti [10] = experiment: Herbicidal post-emergence action, ABUTH; settings: 1280 g/ha, assessed visually after ca. 3 weeks vs untreated controls
# Text: as §3
# Echinochloa crus-galli [11] = experiment: Herbicidal pre-emergence action, ECHCG; settings: 1280 g/ha, visual grading after ca. 3 weeks vs untreated controls
# Text: as §2
# Veronica persica [12] = experiment: Herbicidal pre-emergence action, VERPE; settings: 1280 g/ha, visual grading after ca. 3 weeks vs untreated controls
# Text: as §1
# Poa annua [13] = experiment: Herbicidal post-emergence action, POAAN; settings: assessed visually after ca. 3 weeks vs untreated controls
# Text: as §3
# Setaria viridis [14] = experiment: Herbicidal post-emergence action, SETVI; settings: 1280 g/ha, assessed visually after ca. 3 weeks vs untreated controls
# Text: (§4) Seeds of mono- and dicotyledonous weed plants were sown in plastic pots (double sowings with one species of mono- and one species of dicotyledonous weed plants per pot), in sandy loam, covered with soil and grown under controlled growth conditions. 2 to 3 weeks after sowing, the test plants were sprayed in the single-leaf stage. The compounds according to the invention, formulated in the form of wettable powders (WP) or as emulsifiable concentrates (EC), were sprayed onto the green plant parts as an aqueous suspension or as an emulsion, with the addition of 0.5% of an additive, at an application rate of 600 litres of water per hectare (converted). The test plants were placed in the greenhouse for ca. 3 weeks under optimum growth conditions, and then the effect of the preparations is assessed visually in comparison with untreated controls (herbicidal effect in percent (%): 100% effect=plants have died, 0% effect=as control plants).
# Lolium rigidum [15] = experiment: Herbicidal pre-emergence action, LOLRI; settings: visual grading after ca. 3 weeks vs untreated controls
# Text: as §1
# Kochia scoparia [16] = experiment: Herbicidal pre-emergence action, KCHSC; settings: visual grading after ca. 3 weeks vs untreated controls
# Text: as §1
# Lolium rigidum [17] = experiment: Herbicidal post-emergence action, LOLRI; settings: 1280 g/ha, assessed visually after ca. 3 weeks vs untreated controls
# Text: as §3
# Amaranthus retroflexus [18] = experiment: Herbicidal post-emergence action, AMARE; settings: assessed visually after ca. 3 weeks vs untreated controls
# Text: as §3
# Amaranthus retroflexus [19] = experiment: Herbicidal pre-emergence action, AMARE; settings: visual grading after ca. 3 weeks vs untreated controls
# Text: as §1
# Kochia scoparia [20] = experiment: Herbicidal post-emergence action, KCHSC; settings: assessed visually after ca. 3 weeks vs untreated controls
# Text: as §3
# Echinochloa crus-galli [21] = experiment: Herbicidal post-emergence action, ECHCG; settings: 1280 g/ha, assessed visually after ca. 3 weeks vs untreated controls
# Text: as §4
# Abutilon theophrasti [22] = experiment: Herbicidal pre-emergence action, ABUTH; settings: 1280 g/ha, visual grading after ca. 3 weeks vs untreated controls
# Text: as §2
Structure (SMILES),herbicidal effect STEME (Stellaria media [1]; 320 g/ha) [%],herbicidal effect STEME (Stellaria media [1]; 1280 g/ha) [%],herbicidal effect MATIN (Matricaria inodora [2]; 320 g/ha) [%],herbicidal effect MATIN (Matricaria inodora [2]; 1280 g/ha) [%],herbicidal effect SETVI (Setaria viridis [5]) [%],herbicidal effect VERPE (Veronica persica [6]; 320 g/ha) [%],herbicidal effect VERPE (Veronica persica [6]; 1280 g/ha) [%],herbicidal effect STEME (Stellaria media [7]; 320 g/ha) [%],herbicidal effect STEME (Stellaria media [7]; 1280 g/ha) [%],herbicidal effect MATIN (Matricaria inodora [8]; 320 g/ha) [%],herbicidal effect MATIN (Matricaria inodora [8]; 1280 g/ha) [%],herbicidal effect SETVI (Setaria viridis [14]) [%],herbicidal effect LOLRI (Lolium rigidum [15]; 1280 g/ha) [%],herbicidal effect KCHSC (Kochia scoparia [16]; 1280 g/ha) [%],herbicidal effect LOLRI (Lolium rigidum [17]) [%],herbicidal effect AMARE (Amaranthus retroflexus [18]; 320 g/ha) [%],herbicidal effect AMARE (Amaranthus retroflexus [18]; 1280 g/ha) [%],herbicidal effect AMARE (Amaranthus retroflexus [19]; 320 g/ha) [%],herbicidal effect AMARE (Amaranthus retroflexus [19]; 1280 g/ha) [%],herbicidal effect KCHSC (Kochia scoparia [20]; 1280 g/ha) [%],other results
"O=C(Nc1nc(Cl)ns1)c1c(C(F)(F)F)ccnc1F [Example I-009, N-(3-chloro-1,2,4-thiadiazol-5-yl)-2-fluoro-4-(trifluoromethyl)pyridine-3-carboxamide]",100,100,100,100,90,100,100,100,100,100,100,90,90,100,90,100,100,90,100,100,herbicidal effect POAAN (Poa annua [3]): 90%; herbicidal effect ALOMY (Alopecurus myosuroides [4]): 100%; herbicidal effect ALOMY (Alopecurus myosuroides [9]; 320 g/ha): 90%; herbicidal effect ALOMY (Alopecurus myosuroides [9]; 1280 g/ha): 100%; herbicidal effect ABUTH (Abutilon theophrasti [10]): 90%; herbicidal effect ECHCG (Echinochloa crus-galli [11]): 90%; herbicidal effect VERPE (Veronica persica [12]): 90%; herbicidal effect POAAN (Poa annua [13]; 320 g/ha): 90%; herbicidal effect POAAN (Poa annua [13]; 1280 g/ha): 100%; herbicidal effect KCHSC (Kochia scoparia [16]; 320 g/ha): 90%; herbicidal effect KCHSC (Kochia scoparia [20]; 320 g/ha): 100%
O=C(Nc1nc(Cl)ns1)c1cnccc1C(F)(F)F [Example I-015],–,–,–,–,–,90,90,100,100,90,100,90,–,90,–,–,100,–,–,90,–
CC(C)c1ccnc(F)c1C(=O)Nc1ncns1 [Example I-025],90,90,100,100,90,–,90,90,90,–,90,–,100,90,90,90,100,90,100,–,herbicidal effect ECHCG (Echinochloa crus-galli [21]): 90%; herbicidal effect LOLRI (Lolium rigidum [15]; 320 g/ha): 90%; herbicidal effect ABUTH (Abutilon theophrasti [22]): 100%
